Source: paper PMC6358775, “Elucidation of Vasodilation Response and Structure Activity Relationships of N^2,N^4-Disubstituted Quinazoline 2,4-Diamines in a Rat Pulmonary Artery Model” (Molecules, 2019)
Converted amounts (≈) assume the structure as drawn. Where two headings read alike, the source gives them in different places.

Tests used:
physchem = details: for solubility thermodynamic at 6 h: pH 7.4, aqueous buffer, thermodynamic from solid
Protocol: The solubility of the compounds under investigation here were assessed in phosphate buffer at pH 7.4 using the equilibrium shake-flask method.
An equilibrium shake-flask technique was used to determine the solubility of samples in PBS at pH 7.4. Approximately 1 mg of sample was placed in a 10 mL glass screw top vial and dissolved in 1 mL of 0.02 M PBS at pH 7.4. The solution was sonicated for 1 h, followed by shaking for 6 h (IKA HS 260). The saturated solution was then filtered using a nylon syringe filter. A standard solution of each sample was prepared by dissolving a weighed amount of the sample in 1 mL of DMSO. The concentration of sample dissolved in the PBS solution was determined by comparing the peak area of the PBS and DMSO standard using an Agilent 1100 series HPLC with a Sunshell C8 column (Chromanik Technologies Inc., Osaka, Japan). A 100 µL injection of the aqueous sample and 5 µL of DMSO solution (pre-diluted 100 fold using DMSO) were used.

[1] = system: endothelium-intact rat pulmonary arterial rings; experiment: Vasorelaxation of PE pre-contracted endothelium-intact (E+) pulmonary arterial rings, organ bath; details: for Emax / IC50 / EC50: Rattus norvegicus; for IC50: Table S3, endothelium-intact, read-out: E+ Vaso. pIC50 (converted); for EC50: endothelium-intact (E+) rings pre-contracted with 10^-5 M PE, cumulative 0.0001–30 µM, mean (SEM), n = 6, read-out: Vaso E+ EC50 µM (SEM)
A549 cells = experiment: MTT cytotoxicity assay in A549 cells; assay type: cell-based; details: Homo sapiens
Protocol: A 3-[4,5-dimehyl-2-thiazolyl]-2,5-diphenyl-2H-tetrazoliumbromide (MTT) assay was utilized to assess the concentration-response curves for quinazoline analogues as previously reported. A549 cells (ATCC CCL-185, human alveolar basal epithelial cell line) were used to account for the general cytotoxicity of compounds. Cells were cultured in DMEM medium containing fetal bovine serum (FBS; 10%), penicillin (10 U/mL), and streptomycin (100 U/mL). The temperature was maintained at 37 °C with 5% CO2. Cells were seeded for 16–18 h in DMEM and incubated for 72 h with the test compounds. After incubation, MTT (5 mg/mL in normal saline) was added with DMEM and incubated for 3 h. Careful decantation of the medium and addition of DMSO (50 µL) was done. Absorbance values were recorded at 570 nm after 5 min mechanical shaking of the microplate (Sunrise microplate reader, Tecan).
The activity was presented as the inhibitory concentration required to produce a 50% response (IC50). Prism 6.0 GraphPad Software Inc., (San Diego, CA, USA) was utilized for data fitting. 0.5% DMSO was used as the negative control.

[2] = system: endothelium-denuded rat pulmonary arterial rings; experiment: Vasorelaxation of PE pre-contracted endothelium-denuded (E−) pulmonary arterial rings, organ bath; details: for IC50: Table S3, endothelium-denuded, read-out: E- Vaso. pIC50 (converted); for EC50: endothelium-denuded (E−) rings pre-contracted with 10^-5 M PE, cumulative 0.0001–30 µM, mean (SEM), n = 6, read-out: Vaso E− EC50 µM (SEM); for Emax: maximal relaxation, endothelium-denuded rings, up to 30 µM, mean ± SEM
[3] = system: PE-induced contraction of endothelium-denuded pulmonary arterial rings; experiment: Inhibition of phenylephrine (PE)-induced contraction in endothelium-denuded arterial rings; parameters: species or system rat; details: 10 µM compound, 15 min pre-incubation, E− rings; for inhibition at 10 µM: Rattus norvegicus, PE 0.0001–100 µM, n = 3–5, read-out: % PE-Contraction Inhibition (SEM); for maximal contraction induced by PE attenuated to: remaining contraction
Protocol: These experiments were undertaken to assess the pharmacological activity of quinazoline analogues against the structurally related α1 receptor blocker (prazosin). In contrast to previous vasorelaxant experiments, this protocol was developed to determine the inhibitory effect of pre-incubated (15 min) inhibitors (10 µM) on the concentration-dependent vasoconstriction induced by cumulative addition of PE (0.0001–100 µM) in endothelium-denuded pulmonary arterial rings. Figure 5 illustrates the real time contractile response shown by the pulmonary arterial ring upon cumulative addition of PE, which evoked a concentration-dependent vasoconstriction, increasing the vessel’s tension.
After anesthesia with thiopental sodium (100 mg/kg, i.p.) (Anesthal®, Jagsonpsal Pharmaceutical Ltd., Haryana, India), rats were euthanized by exsanguination. Lungs were carefully excised, cleaned by the removal of connective tissue, and placed in cold physiological Krebs’ solution composed of (mM): NaCl 122; KCl 5; N-[2-hydroxyethyl] piperazine-N′-[2-ethane-sulfonic acid] (HEPES) 10; KH2PO4 0.5; NaH2PO4 0.5; MgCl2 1; CaCl2 1.8; and glucose 11 adjusted to pH 7.3 using 1 M NaOH. The pulmonary artery was isolated from the lungs and cut into rings approximately 2 mm in length before mounting in the organ bath chambers. Endothelial cells were mechanically removed in some experiments by gentle rubbing of the inner surface with forceps. Pulmonary arterial rings were mounted on intraluminal wires via stainless steel hooks maintaining the resting tension at 1 g and rings were equilibrated for 30 min before obtaining a stable contraction with 10^−5 M phenylephrine (PE). The rings were immersed in 10 mL baths containing physiological Krebs’ solution at 37 °C, which was continuously bubbled with air. Force transducers were connected with intraluminal wires to measure isometric tension via a Mac Lab A/D converter (Chart V5, A.D. Instruments, Castle Hill, NSW, Australia). The functional integrity of the endothelium in the vessels was confirmed by vasorelaxation of ≥70% with sequential addition of 10^−5 M acetylcholine (ACh) to pre-contracted vessels with 10^−5 M PE. Relaxations ≤30% to 10^−5 M ACh in vessels rubbed mechanically were considered successfully endothelium denuded.
The protocol included the assessment of the inhibitory vasoconstriction effect of quinazoline test compounds on endothelium-denuded arterial rings. Briefly, the arterial rings were treated with the α1-receptor blocker (prazosin) or test compound at a concentration of 10 µM for 15 min before construction of the second concentration response curve with cumulative addition of PE (0.0001–100 µM). The same conditions were used to test the effects of the solvent (DMSO 0.2%). The results were obtained in percentages by comparison of the maximum contraction without treatment with the contraction in the presence of the test compound [24, 36, 37].

[4] = maximal relaxation, endothelium-intact rings, up to 30 µM, mean ± SEM
[5] = A549, MTT, 72 h incubation, read-out: A549 IC50, µM (S.D.)
[6] = Table S3, A549, read-out: Cytox. pIC50 (converted)

| Log Sol (physchem; 6 h, pH 7.4) | Sol. pH7.4 (µM) (physchem; 6 h, pH 7.4) | solubility thermodynamic at 6 h (physchem) | IC50 [1] | EC50 [1] | IC50 [2] | EC50 [2] | SMILES | Emax [1, 4] | IC50 (A549 cells; [5]) | IC50 (A549 cells; [6]) | Emax [2] | inhibition at 10 µM [3] | maximal contraction induced by PE attenuated to [3] | E+ Emax (%) [1, 4] | Sol. pH7.4 mg/mL (physchem; PBS pH 7.4, shake-flask) | Sol. pH7.4 (µM) (physchem; PBS pH 7.4, shake-flask, value in brackets) | solubility thermodynamic at 6 h (physchem; phosphate buffered saline (PBS)) |
| --- | --- | --- | --- | --- | --- | --- | --- | --- | --- | --- | --- | --- | --- | --- | --- | --- | --- |
| -0.39 | 0.41 µM | 130 µg/mL (≈ 398 µM) | 5.5 µM | 5.54 µM | 13.5 µM | 13.5 µM | c1ccc(CNc2nc(Nc3ccccc3)nc3ccccc23)cc1 [Compound 1] | 90 ± 5.64% | 12.3 µM | 12.3 µM | 86.4 ± 4.03% |  |  |  |  |  |  |
| -0.22 | 0.60 µM | 250 µg/mL (≈ 608 µM) | 5.01 µM | 4.98 µM | 12 µM | 12 µM | c1ccc(CNc2nc(Nc3ccc(N4CCOCC4)cc3)nc3ccccc23)cc1 [Compound 2] | 94.7 ± 3.33% | 12.1 µM | 12 µM | 85.7 ± 6.05% | 56.6% | 43.38 ± 5.90% |  |  |  |  |
| -0.06 | 0.88 µM | 380 µg/mL (≈ 877 µM) | 3.55 µM | 3.59 µM | 6.31 µM | 6.25 µM | CN(C)S(=O)(=O)c1ccc(Nc2nc(NCc3ccccc3)c3ccccc3n2)cc1 [Compound 3] | 82.4 ± 5.9% | 18.3 µM | 18.2 µM | 64.3 ± 5.31% |  |  |  |  |  |  |
| -1.52 | 0.03 µM | 10 µg/mL (≈ 24.7 µM) | 3.16 µM | 3.13 µM | 8.32 µM | 8.29 µM | NS(=O)(=O)c1ccc(Nc2nc(NCc3ccccc3)c3ccccc3n2)cc1 [Compound 4] | 88.5 ± 5.58% | 23 µM | 22.9 µM | 78.5 ± 9.19% |  |  |  |  |  |  |
| 0.14 | 1.37 µM | 560 µg/mL (≈ 1380 µM) | 1.62 µM | 1.63 µM | 1.15 µM | 1.15 µM | NS(=O)(=O)c1cccc(Nc2nc(NCc3ccccc3)c3ccccc3n2)c1 [Compound 5] | 91.7 ± 3.77% | 11.2 µM | 11.2 µM | 95.8 ± 2.4% |  |  |  |  |  |  |
| -0.40 | 0.40 µM | 130 µg/mL (≈ 391 µM) | 9.33 µM | 9.42 µM | 9.33 µM | 9.51 µM | c1ccc(Nc2nc(NCc3cccs3)c3ccccc3n2)cc1 [Compound 6] | 88 ± 7.39% | 27.8 µM | 27.5 µM | 91.2 ± 5.26% |  |  |  |  |  |  |
| -0.66 | 0.22 µM | 100 µg/mL (≈ 214 µM) | 4.07 µM | 4.1 µM | > 30 µM | > 30 µM | O=C(Nc1ccccc1)Nc1ccc(Nc2nc(NCc3cccs3)c3ccccc3n2)cc1 [Compound 7] | 76 ± 5.73% | 2.91 µM | 2.88 µM | 22.3 ± 4.4% | 43.6% | 57.57 ± 5.99% |  |  |  |  |
| -0.32 | 0.48 µM | 200 µg/mL (≈ 479 µM) | 0.575 µM | 0.58 µM | 8.51 µM | 8.5 µM | c1csc(CNc2nc(Nc3ccc(N4CCOCC4)cc3)nc3ccccc23)c1 [Compound 8] | 98.8 ± 0.79% | 11.4 µM | 11.5 µM | 100% | 42.4% | 56.38 ± 7.10% | 98.88 ± 0.79% |  |  |  |
| -0.80 | 0.16 µM | 60 µg/mL (≈ 146 µM) | 1.02 µM | 1.03 µM | 1.74 µM | 1.72 µM | NS(=O)(=O)c1ccc(Nc2nc(NCc3cccs3)c3ccccc3n2)cc1 [Compound 9] | 98.4 ± 1.4% | 32.7 µM | 32.4 µM | 82.1 ± 8.43% |  |  |  |  |  |  |
| 0.08 | 1.20 µM | 450 µg/mL (≈ 1200 µM) | 1.45 µM | 1.46 µM | 5.13 µM | 5.15 µM | NC(=O)c1ccc(Nc2nc(NCc3cccs3)c3ccccc3n2)cc1 [Compound 10] | 90.2 ± 6.48% | 28.3 µM | 28.2 µM | 90.4 ± 5.3% |  |  |  |  |  |  |
| -0.47 | 0.34 µM | 140 µg/mL (≈ 340 µM) | 2.29 µM | 2.28 µM | 11 µM | 10.9 µM | NS(=O)(=O)c1cccc(Nc2nc(NCc3cccs3)c3ccccc3n2)c1 [Compound 11] | 98.7 ± 1.26% | 15 µM | 15.1 µM | 87.4 ± 4.66% |  |  |  |  |  |  |
| -0.25 | 0.56 µM | 210 µg/mL (≈ 559 µM) | 4.17 µM | 4.15 µM | 8.13 µM | 8.15 µM | NC(=O)c1cccc(Nc2nc(NCc3cccs3)c3ccccc3n2)c1 [Compound 12] | 98.7 ± 1.31% | 15.4 µM | 15.5 µM | 87.1 ± 3.63% |  |  |  |  |  |  |
| -0.42 | 0.38 µM | 150 µg/mL (≈ 379 µM) | 6.61 µM | 6.61 µM | 3.02 µM | 3.02 µM | NS(=O)(=O)c1cccc(Nc2nc(NCc3ccco3)c3ccccc3n2)c1 [Compound 13] | 95.5 ± 2.17% | 26.9 µM | 26.9 µM | 95.6 ± 2.75% | 45.9% | 54.07 ± 11.69% |  |  |  |  |

| SMILES | Log Sol (physchem; 6 h, pH 7.4) | Sol. pH7.4 (µM) (physchem; 6 h, pH 7.4) | solubility thermodynamic at 6 h (physchem) | IC50 [1] | EC50 [1] | IC50 [2] | EC50 [2] | Emax [1, 4] | IC50 (A549 cells; [5]) | IC50 (A549 cells; [6]) | Emax [2] | inhibition at 10 µM [3] | maximal contraction induced by PE attenuated to [3] | E+ Emax (%) [1, 4] | Sol. pH7.4 mg/mL (physchem; PBS pH 7.4, shake-flask) | Sol. pH7.4 (µM) (physchem; PBS pH 7.4, shake-flask, value in brackets) | solubility thermodynamic at 6 h (physchem; phosphate buffered saline (PBS)) |
| --- | --- | --- | --- | --- | --- | --- | --- | --- | --- | --- | --- | --- | --- | --- | --- | --- | --- |
| CCCc1nn(C)c2c(=O)[nH]c(-c3cc(S(=O)(=O)N4CCN(C)CC4)ccc3OCC)nc12 [Sildenafil (SIL), Sildenafil, reference compound] |  |  |  |  | 0.14 µM |  | 0.89 µM | 97.8 ± 2.19% |  |  | 85.8 ± 6.41% | 58.3% |  |  | 20.83 mg/mL | 43.88 µM | 20800 µg/mL (≈ 43900 µM) |
